Results published in US20240316059A1, “PEPTIDE DRUG CONJUGATES” (Oncopeptides AB, priority 2021, published 2024).
Read-outs that look alike come from different tables or passages of the source.

Key:
[1] = tested on: MM.1S cells; assay: In vitro cytotoxic potency in MM.1S cell viability assay (CellTiter-Glo); format: cell-based, human; settings: Homo sapiens, MM1.S, 72 h
Protocol: Methods: MM.1S Cells were cultivated in RPMI medium 1640 (IX) supplemented with 10 μg/μL penicillin/streptomycin, 10% heat inactivated FBS, 0.1 mM Sodium Pyruvate, 1×MEM NEAA (ThermoFisher) and 1 mM HEPES. Cells were grown to reach log phase before being exposed to the test compounds.
(§1) Test compounds (Example compounds 1 to 36, 38 to 41 and 45 to 48) and comparative compounds (bendamustine, busulfan, melphalan, chlorambucil and 4-hydroperoxy cyclophosphamide) were dissolved in 100% DMSO and added to a 384 assay plate. Additional DMSO was added to maintain the same final DMSO concentration (0.2%) in all wells. 25 μL cell suspension with a concentration of 100000 cells/mL was added to each well. The cells were cultured in a CO2 incubator at 37° C. for 72 h. Plates were equilibrated to room temperature for 30 minutes before adding 20 μL CellTiter-Glo® 2.0 (Promega) reagent to all wells. The plate was then allowed to stabilize for 20 minutes before recording the luminescence (emission filter 700 nm) in an Envision plate reader.
(§2) All cells were cultivated in RPMI medium 1640 (IX). All media was supplemented with 10 μg/μl penicillin/streptomycin, 10% heat inactivated FBS, 0.1 mM Sodium Pyruvate, 1×MEM NEAA (ThermoFisher) and 1 mM HEPES. The DERL-2 cells had higher FBS (20%) and 40 ng/mL IL-2 was added. hPBMCs were thawed and allowed to acclimatise overnight and then stimulated with 10 μg/mL PHA-M and 40 ng/mL IL-2 for 4 hours before being exposed to test compounds. All cells, except for hPBMCs, were grown to reach log phase before being exposed to the test compounds.
as §1, with “compounds” for “compounds (Example compounds 1 to 36, 38 to 41 and 45 to 48) and comparative compounds (bendamustine, busulfan, melphalan, chlorambucil and 4-hydroperoxy cyclophosphamide)”, “(Em” for “(emission”

[2] = tested on: AMO-1; assay: In vitro cytotoxicity, AMO-1 (Multiple Myeloma); format: cell-based; settings: Homo sapiens, read-out: Cytotoxicity IC50, AMO-1
Protocol: as §2
as §1, with “compounds” for “compounds (Example compounds 1 to 36, 38 to 41 and 45 to 48) and comparative compounds (bendamustine, busulfan, melphalan, chlorambucil and 4-hydroperoxy cyclophosphamide)”, “(Em” for “(emission”

[3] = tested on: EJM; assay: In vitro cytotoxicity, EJM (Multiple Myeloma); format: cell-based; settings: Homo sapiens, 72 h
Protocol: as §2
as §1, with “compounds” for “compounds (Example compounds 1 to 36, 38 to 41 and 45 to 48) and comparative compounds (bendamustine, busulfan, melphalan, chlorambucil and 4-hydroperoxy cyclophosphamide)”, “(Em” for “(emission”

[4] = tested on: KMS-12-BM; assay: In vitro cytotoxicity, KMS-12-BM (Multiple Myeloma); format: cell-based; settings: Homo sapiens, 72 h
Protocol: as §2
as §1, with “compounds” for “compounds (Example compounds 1 to 36, 38 to 41 and 45 to 48) and comparative compounds (bendamustine, busulfan, melphalan, chlorambucil and 4-hydroperoxy cyclophosphamide)”, “(Em” for “(emission”

[5] = tested on: OPM-2; assay: In vitro cytotoxicity, OPM-2 (Multiple Myeloma); format: cell-based; settings: Homo sapiens, read-out: Cytotoxicity IC50, OPM-2
Protocol: as §2
as §1, with “compounds” for “compounds (Example compounds 1 to 36, 38 to 41 and 45 to 48) and comparative compounds (bendamustine, busulfan, melphalan, chlorambucil and 4-hydroperoxy cyclophosphamide)”, “(Em” for “(emission”

[6] = tested on: RPMI-8226; assay: In vitro cytotoxicity, RPMI-8226 (Multiple Myeloma, resistant); format: cell-based; settings: Homo sapiens, read-out: Cytotoxicity IC50, RPMI-8226
Protocol: as §2
as §1, with “compounds” for “compounds (Example compounds 1 to 36, 38 to 41 and 45 to 48) and comparative compounds (bendamustine, busulfan, melphalan, chlorambucil and 4-hydroperoxy cyclophosphamide)”, “(Em” for “(emission”

[7] = tested on: U266; assay: In vitro cytotoxicity, U266 (Multiple Myeloma); format: cell-based; settings: Homo sapiens, read-out: Cytotoxicity IC50, U266
Protocol: as §2
as §1, with “compounds” for “compounds (Example compounds 1 to 36, 38 to 41 and 45 to 48) and comparative compounds (bendamustine, busulfan, melphalan, chlorambucil and 4-hydroperoxy cyclophosphamide)”, “(Em” for “(emission”

[8] = tested on: SC-1; assay: In vitro cytotoxicity, SC-1 (B cell Lymphoma); format: cell-based; settings: Homo sapiens, read-out: Cytotoxicity IC50, SC-1
Protocol: as §2
as §1, with “compounds” for “compounds (Example compounds 1 to 36, 38 to 41 and 45 to 48) and comparative compounds (bendamustine, busulfan, melphalan, chlorambucil and 4-hydroperoxy cyclophosphamide)”, “(Em” for “(emission”

[9] = In vitro cytotoxicity, BJ fibroblasts (normal cells); format: cell-based; settings: human, CellTiter-Glo 2.0
Protocol: as §2
as §1, with “compounds” for “compounds (Example compounds 1 to 36, 38 to 41 and 45 to 48) and comparative compounds (bendamustine, busulfan, melphalan, chlorambucil and 4-hydroperoxy cyclophosphamide)”, “(Em” for “(emission”

[10] = tested on: U937; assay: In vitro cytotoxicity, U937 (Histiocytic Lymphoma); format: cell-based; settings: Homo sapiens, U-937; 72 h, CellTiter-Glo 2.0; read-out: Cytotoxicity IC50, U937
Protocol: as §2
as §1, with “compounds” for “compounds (Example compounds 1 to 36, 38 to 41 and 45 to 48) and comparative compounds (bendamustine, busulfan, melphalan, chlorambucil and 4-hydroperoxy cyclophosphamide)”, “(Em” for “(emission”

[11] = tested on: SK-MM-1; assay: In vitro cytotoxicity, SK-MM-1 (Plasma Cell Leukemia); format: cell-based; settings: Homo sapiens; 72 h, CellTiter-Glo 2.0; read-out: Cytotoxicity IC50, SK-MM-1
Protocol: as §2
as §1, with “compounds” for “compounds (Example compounds 1 to 36, 38 to 41 and 45 to 48) and comparative compounds (bendamustine, busulfan, melphalan, chlorambucil and 4-hydroperoxy cyclophosphamide)”, “(Em” for “(emission”

[12] = tested on: DOHH-2; assay: In vitro cytotoxicity, DOHH-2 (B Cell Lymphoma); format: cell-based; settings: Homo sapiens, DOHH-2; 72 h, CellTiter-Glo 2.0; read-out: Cytotoxicity IC50, DOHH-2
Protocol: as §2
as §1, with “compounds” for “compounds (Example compounds 1 to 36, 38 to 41 and 45 to 48) and comparative compounds (bendamustine, busulfan, melphalan, chlorambucil and 4-hydroperoxy cyclophosphamide)”, “(Em” for “(emission”

[13] = tested on: HG-3; assay: In vitro cytotoxicity, HG-3 (Chronic Lymphocytic Leukemia); format: cell-based; settings: Homo sapiens, HG-3; 72 h, CellTiter-Glo 2.0; read-out: Cytotoxicity IC50, HG-3
Protocol: as §2
as §1, with “compounds” for “compounds (Example compounds 1 to 36, 38 to 41 and 45 to 48) and comparative compounds (bendamustine, busulfan, melphalan, chlorambucil and 4-hydroperoxy cyclophosphamide)”, “(Em” for “(emission”

[14] = tested on: SU-DHL-8; assay: In vitro cytotoxicity, SU-DHL-8 (B-cell non-Hodgkin Lymphoma); format: cell-based; settings: Homo sapiens, SU-DHL-8; 72 h, CellTiter-Glo 2.0; read-out: Cytotoxicity IC50, SU-DHL-8
Protocol: as §2
as §1, with “compounds” for “compounds (Example compounds 1 to 36, 38 to 41 and 45 to 48) and comparative compounds (bendamustine, busulfan, melphalan, chlorambucil and 4-hydroperoxy cyclophosphamide)”, “(Em” for “(emission”

[15] = tested on: Toledo; assay: In vitro cytotoxicity, Toledo (Diffuse Large B Cell Lymphoma); format: cell-based; settings: Homo sapiens, 72 h, CellTiter-Glo 2.0, read-out: Cytotoxicity IC50, Toledo
Protocol: as §2
as §1, with “compounds” for “compounds (Example compounds 1 to 36, 38 to 41 and 45 to 48) and comparative compounds (bendamustine, busulfan, melphalan, chlorambucil and 4-hydroperoxy cyclophosphamide)”, “(Em” for “(emission”

[16] = read-out: Cytotoxicity IC50, MM.1S
[17] = CellTiter-Glo 2.0, read-out: Cytotoxicity IC50, EJM
[18] = CellTiter-Glo 2.0, read-out: Cytotoxicity IC50, KMS-12-BM
[19] = RPMI-8226, 72 h, CellTiter-Glo 2.0

What does the source list for `CCOC(=O)[C@H](CC(C)C)NC(=O)[C@@H](N)CCc1nc2cc(N(CCCl)CCCl)ccc2n1-c1ccccc1` [Example 13, Ethyl (2S)-2-[[(2S)-2-amino-4-[5-[bis(2-chloroethyl)amino]-1-phenyl-benzimidazol-2-yl]butanoyl]amino]-4-methyl-pentanoate]?
IC50 [1, 16]: 0.049 µM; IC50 ([1]; read-out: MM.1S IC50): 0.049 µM; IC50 ([2]; AMO1, 72 h): 0.965 µM; IC50 ([3]; read-out: Cytotoxicity IC50, EJM): 0.356 µM; IC50 ([4]; read-out: Cytotoxicity IC50, KMS-12-BM): 0.137 µM; IC50 ([5]; OPM-2, 72 h): 2.11 µM; IC50 ([6]; RPMI-8226, 72 h): 1.72 µM; IC50 ([7]; U-266, 72 h): 0.4 µM; IC50 ([8]; SC-1, 72 h): 0.134 µM; IC50 at 72 h [9]: > 2 µM

With `CC(C)C[C@H](NC(=O)[C@@H](N)CCc1nc2cc(N(CCCl)CCCl)ccc2n1C)C(=O)N(C)C` [Example 30, (2S)-2-[[(2S)-2-Amino-4-[5-[bis(2-chloroethyl)amino]-1-methyl-benzimidazol-2-yl]butanoyl]amino]-N,N,4-trimethyl-pentanamide] as the compound, how does the IC50 [1, 16] read?
The IC50 was 0.0397 µM.

What about the IC50 ([1]; read-out: MM.1S IC50) of the same compound?
The IC50 was 0.0397 µM.

And the IC50 ([2]; AMO1, 72 h, CellTiter-Glo 2.0)?
The IC50 was 0.653 µM.

What about the IC50 [3, 17] of the same compound?
Its IC50 is 0.173 µM.

And the IC50 [4, 18]?
The IC50 was 0.045 µM.

And the IC50 ([5]; OPM-2, 72 h, CellTiter-Glo 2.0)?
The IC50 was 0.322 µM.

What about the IC50 [6, 19] of the same compound?
Its IC50 is 0.492 µM.

What about the IC50 ([7]; U-266, 72 h, CellTiter-Glo 2.0) of the same compound?
Its IC50 is 0.131 µM.

And the IC50 ([8]; SC-1, 72 h, CellTiter-Glo 2.0)?
Its IC50 is 0.0537 µM.

And the IC50 at 72 h [9]?
Its IC50 at 72 h is greater than 2 µM.

Which results are given for `CCOC(=O)[C@H](Cc1ccc(F)cc1)NC(=O)[C@H](CCc1nc2cc(N(CCCl)CCCl)ccc2n1C)NC(C)=O` [Example 34, Ethyl (2S)-2-[[(2S)-2-acetamido-4-[5-[bis(2-chloroethyl)amino]-1-methyl-benzimidazol-2-yl]butanoyl]amino]-3-(4-fluorophenyl)propanoate]?
IC50 [1, 16]: 0.0683 µM; IC50 ([1]; read-out: MM.1S IC50): 0.0683 µM; IC50 [10]: 0.397 µM; IC50 ([2]; AMO1, 72 h, CellTiter-Glo 2.0): 0.758 µM; IC50 [3, 17]: 0.637 µM; IC50 [4, 18]: 0.105 µM; IC50 ([5]; OPM-2, 72 h, CellTiter-Glo 2.0): 0.961 µM; IC50 [6, 19]: 1.45 µM; IC50 [11]: 0.604 µM; IC50 ([7]; U-266, 72 h, CellTiter-Glo 2.0): 0.266 µM; IC50 [12]: 0.543 µM; IC50 [13]: 0.888 µM; IC50 ([8]; SC-1, 72 h, CellTiter-Glo 2.0): 1.06 µM; IC50 [14]: 0.202 µM; IC50 [15]: 0.328 µM; IC50 at 72 h [9]: > 2 µM
